Values quoted from earlier work as cited in US10314839B2, “Diversion-resistant opioid formulations” (priority 2014, dated 2019).
Where a name gives a salt, the structure may show the parent alone.

How the values were obtained:
opioid receptor [1] = details: after oral doses
[2] = hydrochloride salt
[3] = test system: mu over delta receptor sub-types
opioid receptor [4] = test system: opioid receptor

C[C@H]1[C@H]2Cc3ccc(O)cc3[C@]1(C)CCN2CC1CC1 [cyclazocine]
Duration of action (opioid receptor [1]): ~24 h

O=C1CC[C@@]2(O)[C@H]3Cc4ccc(O)c5c4[C@@]2(CCN3CC2CC2)[C@H]1O5 [hydrochloride salt of naltrexone, naltrexone]
Solubility in water [2]: up to 100 mg/mL

O=C1CC[C@@]2(O)[C@H]3Cc4ccc(O)c5c4[C@@]2(CCN3CC2CC2)[C@H]1O5 [naltrexone]
Duration of action (opioid receptor [1]): ~24 h | Protein binding (in vivo): approximately 21% | Oral bioavailability (oral administration): 5-40% | Preferential blocking action between receptor sub-types [3]: strong preferential blocking action against mu over delta receptor sub-types | Opioid agonist effects / properties (opioid receptor [4]): no opioid agonist properties
